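Grown in 96-well plates, cells were treated for 48 hours with each compound at five concentrations. Insufficient inhibition: endpoint recorded as highest concentration tested. At the TGI there is no net growth.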
Each molecule was assayed on SK-MEL-28 melanoma (assay: NCI tumour cell line growth inhibition, 48 h).

`CCCC(=O)OCC1OC(n2ccc(N)nc2=O)C(OC(=O)CCC)C1OC(=O)CCC` (stereo not drawn) and `CC(=O)OC1/C=C(\C)C(OC(C)=O)C/C=C(/C)CCC2C(/C=C/C1=O)C2(C)C` (stereo not drawn) cannot be ordered by TGI: > 95.2 µM for the first, > 100 µM for the second.

Going from `O=S(=O)(O)CCCc1cccc2ccccc12` to `Cc1n(Cc2ccccc2)c2c([n+]1C)C(=O)c1ccccc1C2=O`, the TGI falls from > 100 µM to 0.541 µM.

Going from `NC(CCCCCP(=O)(c1ccccc1)C1C=CC=CC1)C(=O)O` (stereo not drawn) to `CC(C)Cc1ccc(C(C)C(=O)N2CCN(/C=C/c3ccccc3)CC2)cc1` (stereo not drawn), the TGI falls from > 100 µM to 32.1 µM.

Going from `COc1ccc(/C=C2\CCNC2=O)cc1` to `CN(C)c1ccc(/C=c2/c3ccccc3n3c2c2c([n+]3C)CCCC2)cc1`, the TGI falls from > 100 µM to 2.06 µM.

`O=c1cc[nH]c(=O)[nH]1` and `O=c1sc2ccccc2n1CC1CS1` (stereo not drawn) cannot be ordered by TGI: > 900 µM for the first, > 100 µM for the second.

Compared with `O=P(O)(O)CCP(=O)(O)O`, `O=C(O)C(O)C(O)C(O)C(O)c1nc2ccccc2s1` (stereo not drawn) is lower in TGI: > 100 µM for the first, 38 µM for the second.

Compared with `CCOc1ncn(-c2ccc(NC(=S)Nc3ncccn3)cc2)n1`, `CC(=O)Nc1ccc(N=Nc2c(O)c(S(=O)(=O)O)cc3cc(S(=O)(=O)O)ccc23)cc1` is higher in TGI: 59.8 µM for the first, > 100 µM for the second.

Compared with `CC1(C)OC(C(=O)Nc2cc3c4ccccc4ccc3c3ccccc23)C(C(=O)N2CCCCC2)O1` (stereo not drawn), `COc1cc2c(cc1OC)C(CC1=C(c3ccccc3)CN3CCc4cc(OC)c(OC)cc4C3C1)NCC2` (stereo not drawn) is lower in TGI: > 100 µM for the first, 28.5 µM for the second.

In the case of `CCN(CC)CCNc1ccc2nnn3c4ccc(OCCN(CC)CC)cc4c(=O)c1c23`, the TGI was > 100 µM.

These molecules were tested on CAKI-1 renal (assay: NCI tumour cell line growth inhibition, 48 h).

`CCCC(=O)OCC1OC(n2ccc(N)nc2=O)C(OC(=O)CCC)C1OC(=O)CCC` (stereo not drawn) and `CCN(CC)CCNc1ccc2nnn3c4ccc(OCCN(CC)CC)cc4c(=O)c1c23` cannot be ordered by TGI: > 100 µM for the first, > 100 µM for the second.

Compared with `O=S(=O)(O)CCCc1cccc2ccccc12`, `Cc1n(Cc2ccccc2)c2c([n+]1C)C(=O)c1ccccc1C2=O` is lower in TGI: > 100 µM for the first, 11.3 µM for the second.

`NC(CCCCCP(=O)(c1ccccc1)C1C=CC=CC1)C(=O)O` (stereo not drawn) and `CC1(C)OC(C(=O)Nc2cc3c4ccccc4ccc3c3ccccc23)C(C(=O)N2CCCCC2)O1` (stereo not drawn) cannot be ordered by TGI: > 100 µM for the first, > 54.6 µM for the second.

Compared with `COc1ccc(/C=C2\CCNC2=O)cc1`, `CN(C)c1ccc(/C=c2/c3ccccc3n3c2c2c([n+]3C)CCCC2)cc1` is lower in TGI: > 100 µM for the first, 4.8 µM for the second.

Compared with `CO/N=C(\C)c1ccc(Nc2nc3ccccc3c3occc23)cc1`, `CC(=O)Nc1ccc(N=Nc2c(O)c(S(=O)(=O)O)cc3cc(S(=O)(=O)O)ccc23)cc1` is higher in TGI: 32 µM for the first, > 100 µM for the second.

`O=c1cc[nH]c(=O)[nH]1` and `O=c1sc2ccccc2n1CC1CS1` (stereo not drawn) cannot be ordered by TGI: > 920 µM for the first, > 100 µM for the second.

Compared with `O=P(O)(O)CCP(=O)(O)O`, `O=C(O)C(O)C(O)C(O)C(O)c1nc2ccccc2s1` (stereo not drawn) is lower in TGI: > 100 µM for the first, 33.5 µM for the second.

First: O=C1c2cccc3c2C(=O)c2c(cccc21)OCCOCCOCCOCCO3
Second: COc1cc2c(cc1OC)C(CC1=C(c3ccccc3)CN3CCc4cc(OC)c(OC)cc4C3C1)NCC2 (stereo not drawn)
The TGI of the first is higher: > 100 µM for the first, 44.6 µM for the second.

`C=CCc1c(O)c2c(c3oc(=O)cc(C)c13)CC(C)O2` (stereo not drawn) and `Nc1c(C(=O)O)nnc2ccc(Cl)cc12` cannot be ordered by TGI: > 100 µM for the first, > 100 µM for the second.

What follows are molecules tested on T-47D breast (assay: NCI tumour cell line growth inhibition, 48 h).

Going from `O=S(=O)(O)CCCc1cccc2ccccc12` to `Cc1n(Cc2ccccc2)c2c([n+]1C)C(=O)c1ccccc1C2=O`, the TGI falls from > 100 µM to 1.33 µM.

`NC(CCCCCP(=O)(c1ccccc1)C1C=CC=CC1)C(=O)O` (stereo not drawn) and `CC1(C)OC(C(=O)Nc2cc3c4ccccc4ccc3c3ccccc23)C(C(=O)N2CCCCC2)O1` (stereo not drawn) cannot be ordered by TGI: > 100 µM for the first, > 100 µM for the second.

Going from `CO/N=C(\C)c1ccc(Nc2nc3ccccc3c3occc23)cc1` to `CN(C)c1ccc(/C=c2/c3ccccc3n3c2c2c([n+]3C)CCCC2)cc1`, the TGI falls from 28.9 µM to 0.362 µM (80-fold).

First: O=P(O)(O)CCP(=O)(O)O
Second: O=C(O)C(O)C(O)C(O)C(O)c1nc2ccccc2s1 (stereo not drawn)
The TGI of the first is higher: > 100 µM for the first, 52.7 µM for the second.

Going from `CCOc1ncn(-c2ccc(NC(=S)Nc3ncccn3)cc2)n1` to `CC(=O)Nc1ccc(N=Nc2c(O)c(S(=O)(=O)O)cc3cc(S(=O)(=O)O)ccc23)cc1`, the TGI rises from 62.2 µM to > 100 µM.

`CCN(CC)CCNc1ccc2nnn3c4ccc(OCCN(CC)CC)cc4c(=O)c1c23` and `Nc1c(C(=O)O)nnc2ccc(Cl)cc12` cannot be ordered by TGI: > 100 µM for the first, > 100 µM for the second.

What follows are molecules tested on CCRF-CEM leukemia (assay: NCI tumour cell line growth inhibition, 48 h).

`CCCC(=O)OCC1OC(n2ccc(N)nc2=O)C(OC(=O)CCC)C1OC(=O)CCC` (stereo not drawn) and `CC(=O)OC1/C=C(\C)C(OC(C)=O)C/C=C(/C)CCC2C(/C=C/C1=O)C2(C)C` (stereo not drawn) cannot be ordered by TGI: > 100 µM for the first, > 100 µM for the second.

`O=S(=O)(O)CCCc1cccc2ccccc12` and `Cc1n(Cc2ccccc2)c2c([n+]1C)C(=O)c1ccccc1C2=O` cannot be ordered by TGI: > 100 µM for the first, > 100 µM for the second.

Going from `NC(CCCCCP(=O)(c1ccccc1)C1C=CC=CC1)C(=O)O` (stereo not drawn) to `CC(C)Cc1ccc(C(C)C(=O)N2CCN(/C=C/c3ccccc3)CC2)cc1` (stereo not drawn), the TGI falls from > 100 µM to 37.1 µM.

First: COc1ccc(/C=C2\CCNC2=O)cc1
Second: CN(C)c1ccc(/C=c2/c3ccccc3n3c2c2c([n+]3C)CCCC2)cc1
The TGI of the first is higher: > 100 µM for the first, 5.17 µM for the second.

Compared with `CO/N=C(\C)c1ccc(Nc2nc3ccccc3c3occc23)cc1`, `CC1(C)OC(C(=O)Nc2cc3c4ccccc4ccc3c3ccccc23)C(C(=O)N2CCCCC2)O1` (stereo not drawn) is higher in TGI: 42.2 µM for the first, > 100 µM for the second.

`O=c1cc[nH]c(=O)[nH]1` and `O=c1sc2ccccc2n1CC1CS1` (stereo not drawn) cannot be ordered by TGI: > 950 µM for the first, > 100 µM for the second.

`O=P(O)(O)CCP(=O)(O)O` and `O=C(O)C(O)C(O)C(O)C(O)c1nc2ccccc2s1` (stereo not drawn) cannot be ordered by TGI: > 100 µM for the first, > 100 µM for the second.

Going from `O=C1c2cccc3c2C(=O)c2c(cccc21)OCCOCCOCCOCCO3` to `COc1cc2c(cc1OC)C(CC1=C(c3ccccc3)CN3CCc4cc(OC)c(OC)cc4C3C1)NCC2` (stereo not drawn), the TGI falls from > 100 µM to 37.6 µM.

Compared with `C=CCc1c(O)c2c(c3oc(=O)cc(C)c13)CC(C)O2` (stereo not drawn), `CCN(CC)CCNc1ccc2nnn3c4ccc(OCCN(CC)CC)cc4c(=O)c1c23` is lower in TGI: > 100 µM for the first, 49 µM for the second.

First: CCOc1ncn(-c2ccc(NC(=S)Nc3ncccn3)cc2)n1
Second: Nc1c(C(=O)O)nnc2ccc(Cl)cc12
The TGI of the first is lower: 59.1 µM for the first, > 100 µM for the second.

These molecules were tested on SK-OV-3 ovarian (assay: NCI tumour cell line growth inhibition, 48 h).

`CCCC(=O)OCC1OC(n2ccc(N)nc2=O)C(OC(=O)CCC)C1OC(=O)CCC` (stereo not drawn) and `CC(=O)OC1/C=C(\C)C(OC(C)=O)C/C=C(/C)CCC2C(/C=C/C1=O)C2(C)C` (stereo not drawn) cannot be ordered by TGI: > 100 µM for the first, > 100 µM for the second.

Going from `O=S(=O)(O)CCCc1cccc2ccccc12` to `Cc1n(Cc2ccccc2)c2c([n+]1C)C(=O)c1ccccc1C2=O`, the TGI falls from > 100 µM to 1.65 µM.

Compared with `NC(CCCCCP(=O)(c1ccccc1)C1C=CC=CC1)C(=O)O` (stereo not drawn), `CC(C)Cc1ccc(C(C)C(=O)N2CCN(/C=C/c3ccccc3)CC2)cc1` (stereo not drawn) is lower in TGI: > 100 µM for the first, 30.3 µM for the second.

Compared with `COc1ccc(/C=C2\CCNC2=O)cc1`, `CN(C)c1ccc(/C=c2/c3ccccc3n3c2c2c([n+]3C)CCCC2)cc1` is lower in TGI: > 100 µM for the first, 2.07 µM for the second.

Going from `CO/N=C(\C)c1ccc(Nc2nc3ccccc3c3occc23)cc1` to `CC(=O)Nc1ccc(N=Nc2c(O)c(S(=O)(=O)O)cc3cc(S(=O)(=O)O)ccc23)cc1`, the TGI rises from 29.5 µM to > 100 µM.

`O=c1cc[nH]c(=O)[nH]1` and `O=c1sc2ccccc2n1CC1CS1` (stereo not drawn) cannot be ordered by TGI: > 1000 µM for the first, > 100 µM for the second.

Going from `O=P(O)(O)CCP(=O)(O)O` to `O=C(O)C(O)C(O)C(O)C(O)c1nc2ccccc2s1` (stereo not drawn), the TGI falls from > 100 µM to 34.4 µM.

`O=C1c2cccc3c2C(=O)c2c(cccc21)OCCOCCOCCOCCO3` and `CC1(C)OC(C(=O)Nc2cc3c4ccccc4ccc3c3ccccc23)C(C(=O)N2CCCCC2)O1` (stereo not drawn) cannot be ordered by TGI: > 100 µM for the first, > 100 µM for the second.

`C=CCc1c(O)c2c(c3oc(=O)cc(C)c13)CC(C)O2` (stereo not drawn) and `CCN(CC)CCNc1ccc2nnn3c4ccc(OCCN(CC)CC)cc4c(=O)c1c23` cannot be ordered by TGI: > 100 µM for the first, > 100 µM for the second.

`CCOc1ncn(-c2ccc(NC(=S)Nc3ncccn3)cc2)n1` and `Nc1c(C(=O)O)nnc2ccc(Cl)cc12` cannot be ordered by TGI: > 100 µM for the first, > 100 µM for the second.

`COc1cc2c(cc1OC)C(CC1=C(c3ccccc3)CN3CCc4cc(OC)c(OC)cc4C3C1)NCC2` (stereo not drawn) showed a TGI of 43.9 µM.

From PubChem BioAssay (NCI)
